Data on 26 molecules can be found in patent publication US20090247559A1 (Exelixis, Inc., priority 2007, published 2009).

Test [1] has as its target CK2 (Homo sapiens, UniProt P68400). Briefly: CK2 inhibition, biochemical chemiluminescence holoenzyme assay (Kinase Glo, IC50 determination). As to conditions: Table 1 activity class; symbol given only if active; read-out: CK2 IC50 (Activity C). As to the method:
Characterization of CK2 Inhibition in a Biochemical Chemiluminesence Assay (IC50 Determination):
The IC50 evaluation of compounds against CK2 was performed in a Chemiluminesence Holoenzyme assay utilizing a Greiner 384-well white medium binding white plate format. […] The assay procedure involves the compound dilution scheme followed by addition of 10 μL of the substrate twice, followed by 10 μL twice of the respective enzyme or buffer to the designated well plates and subsequent pre-incubation of the compounds. Following an incubation period of 150 minutes at ambient temperature (24-27° C.), 10 μL of Kinase Glo (Promega) was added. The luminescence was measured following a Luminescence Protocol on a Victor plate reader.
In general terms: Kinase-Glo reads ATP consumption through a luciferase reaction.

Test [2] deals with PIM (PIM-1, PIM-2, and/or PIM-3). The experiment in a line: PIM-1, PIM-2 and PIM-3 inhibition, biochemical chemiluminescence assays (Kinase Glo, IC50 determination). As to conditions: Table 1 activity class; PIM refers to PIM-1, PIM-2, and/or PIM-3; read-out: PIM IC50 (Activity B). As to the method: The IC50 evaluation of compounds against the PIM-1 oncogene was performed in a Chemiluminesence assay utilizing a Greiner 384-well white medium binding white plate format. […] Following an incubation period of 120 minutes at ambient temperature (24-27° C.), 10 μL of Kinase Glo (Promega) was added. The luminescence was measured following a Luminescence Protocol on a Victor plate reader.
The IC50 evaluation of compounds against the PIM-2 oncogene was performed in a Chemiluminesence assay utilizing a Greiner 384-well white medium binding white plate format. […] The assay procedure involves compound dilution followed by addition of 3 nM PIM-2 to the designated well plates and subsequent pre-incubation of the compounds with the enzyme for 30 minutes at ambient temperature (24-27° C.). […] Following an incubation period of 120 minutes at ambient temperature (24-27° C.), 10 μL of Kinase Glo (Promega) was added. The luminescence was measured following a Luminescence Protocol on a Victor plate reader.
The IC50 evaluation of compounds against the PIM-3 Oncogene was performed in a Chemiluminesence assay utilizing a Greiner 384-well white medium binding white plate format. […] Following an incubation period of 120 minutes at ambient temperature (24-27° C.), 10 μL of Kinase Glo (Promega) was added. The luminescence was measured following a Luminescence Protocol on a Victor plate reader.

CK2, sequence (P68400 whole entry): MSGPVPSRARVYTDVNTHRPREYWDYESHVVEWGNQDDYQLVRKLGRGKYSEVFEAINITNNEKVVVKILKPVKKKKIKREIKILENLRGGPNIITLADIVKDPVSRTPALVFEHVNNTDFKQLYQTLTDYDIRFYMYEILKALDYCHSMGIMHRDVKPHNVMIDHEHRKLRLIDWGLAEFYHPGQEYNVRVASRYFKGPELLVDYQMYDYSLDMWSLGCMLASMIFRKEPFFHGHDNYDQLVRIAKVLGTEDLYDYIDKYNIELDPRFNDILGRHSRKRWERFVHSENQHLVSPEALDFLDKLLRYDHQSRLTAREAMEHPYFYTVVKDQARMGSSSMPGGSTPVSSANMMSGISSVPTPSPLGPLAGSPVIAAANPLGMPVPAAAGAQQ
CK2, sequence (P67870 whole entry partner): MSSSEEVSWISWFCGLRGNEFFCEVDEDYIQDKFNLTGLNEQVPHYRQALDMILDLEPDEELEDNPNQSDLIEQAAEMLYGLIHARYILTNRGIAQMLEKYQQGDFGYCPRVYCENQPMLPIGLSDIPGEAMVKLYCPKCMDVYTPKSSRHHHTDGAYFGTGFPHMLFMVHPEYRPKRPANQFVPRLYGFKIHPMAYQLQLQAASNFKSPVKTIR

As a reminder, the IC50 is the midpoint of a concentration-inhibition curve. As to `CN1CCN(c2cccc(CNCc3nc4c(oc5ccc(Br)cc54)c(=O)[nH]3)c2)CC1` [Compound 14, 8-bromo-2-[({[3-(4-methylpiperazin-1-yl)phenyl]methyl}amino)-methyl][1]benzofuro[3,2-d]pyrimidin-4(3H)-one], the IC50 in test [1] and in test [2] was less than 10 µM in each case.
`O=c1[nH]c(COc2ccccc2)nc2c1oc1ccc(Br)cc12` [Compound 15, 8-bromo-2-[(phenyloxy)methyl][1]benzofuro[3,2-d]pyrimidin-4(3H)-one]: the IC50 in test [1] and in test [2] was less than 10 µM each time.
Consider `O=c1[nH]c(CNc2ccccc2)nc2c1oc1ccc(Br)cc12` [Compound 16, 8-bromo-2-[(phenylamino)methyl][1]benzofuro[3,2-d]pyrimidin-4(3H)-one], for which the IC50 in test [1] and in test [2] was less than 10 µM in each case.
With `CN(C)C1CCN(Cc2nc3c(oc4ccc(Br)cc43)c(=O)[nH]2)C1` (stereo not shown) [Compound 17, 8-bromo-2-{[3-(dimethylamino)pyrrolidin-1-yl]methyl}[1]benzofuro[3,2-d]pyrimidin-4(3H)-one], the IC50 in test [1] and in test [2] was less than 10 µM throughout.
With `CN(Cc1nc2c(oc3ccc(Br)cc32)c(=O)[nH]1)c1ccccc1Cl` [Compound 18, 8-bromo-2-{[(2-chlorophenyl)(methyl)amino]methyl}[1]benzofuro[3,2-d]pyrimidin-4(3H)-one], the IC50 in test [1] and in test [2] was less than 10 µM throughout.
Turning to `O=c1[nH]c(CNc2ccccc2F)nc2c1oc1ccc(Br)cc12` [Compound 19, 8-bromo-2-{[(2-fluorophenyl)amino]methyl}[1]benzofuro[3,2-d]pyrimidin-4(3H)-one], the IC50 in test [1] and in test [2] was less than 10 µM throughout.
Take `CN(C)c1cccc(CNCc2nc3c(oc4ccc(Br)cc43)c(=O)[nH]2)c1` [Compound 21, 8-bromo-2-[({[3-(dimethylamino)phenyl]methyl}amino)methyl][1]benzofuro[3,2-d]pyrimidin-4(3H)-one]: the IC50 in test [1] and in test [2] was less than 10 µM in each case.
Turning to `O=c1[nH]c(CN2CCOCC2)nc2c1oc1ccc(Br)cc12` [Compound 24, 8-bromo-2-(morpholin-4-ylmethyl)[1]benzofuro[3,2-d]pyrimidin-4(3H)-one], the IC50 in test [1] and in test [2] was less than 10 µM in each case.
For the molecule `O=c1[nH]c(-c2c(Cl)cccc2Cl)nc2c1oc1ccc(Br)cc12` [Compound 36, 8-Bromo-2-(2,6-dichlorophenyl)[1]benzofuro[3,2-d]pyrimidin-4(3H)-one], the IC50 in test [1] and in test [2] was less than 10 µM in each case.
For `O=c1[nH]c(-c2cc(Cl)ccc2Cl)nc2c1oc1ccc(Br)cc12` [Compound 37, 8-Bromo-2-(2,5-dichlorophenyl)[1]benzofuro[3,2-d]pyrimidin-4(3H)-one], the IC50 in test [1] and in test [2] was less than 10 µM throughout.
For the molecule `O=c1[nH]c(-c2ccccc2Br)nc2c1oc1ccc(Br)cc12` [Compound 38, 8-Bromo-2-(2-bromophenyl)[1]benzofuro[3,2-d]pyrimidin-4(3H)-one], the IC50 in test [1] and in test [2] was less than 10 µM each time.
On to `CN(C)c1ccc(-c2nc3c(oc4ccc(Br)cc43)c(=O)[nH]2)c(Cl)c1` [Compound 41, 8-bromo-2-[2-chloro-4-(dimethylamino)phenyl][1]benzofuro[3,2-d]pyrimidin-4(3H)-one], for which the IC50 in test [1] and in test [2] was less than 10 µM each time.
For `Cc1cc(N)ccc1-c1nc2c(oc3ccc(Br)cc32)c(=O)[nH]1` [Compound 50, 2-(4-amino-2-methylphenyl)-8-bromo[1]benzofuro[3,2-d]pyrimidin-4(3H)-one], the IC50 in test [1] and in test [2] was less than 10 µM in each case.
Consider `O=c1[nH]c(-c2ccccc2O)nc2c1oc1ccc(Br)cc12` [Compound 51, 8-bromo-2-(2-hydroxyphenyl)[1]benzofuro[3,2-d]pyrimidin-4(3H)-one], for which the IC50 in test [1] and in test [2] was less than 10 µM throughout.
`Cc1cc(NCC2CCNCC2)ccc1-c1nc2c(oc3ccc(Br)cc32)c(=O)[nH]1` [Compound 54, 8-bromo-2-{2-methyl-4-[(piperidin-4-ylmethyl)amino]phenyl}[1]benzofuro[3,2-d]pyrimidin-4(3H)-one]: the half-maximal inhibitory concentration (IC50) in test [1] and in test [2] was less than 10 µM throughout.
Consider `O=c1[nH]c(-c2ccccn2)nc2c1oc1ccc(Br)cc12` [Compound 57, 8-Bromo-2-pyridin-2-yl[1]benzofuro[3,2-d]pyrimidin-4(3H)-one], for which the IC50 in test [1] and in test [2] was less than 10 µM in each case.
For `O=c1[nH]c(-c2ccccc2F)nc2c1oc1ccc(Br)cc12` [Compound 58, 8-Bromo-2-(2-fluorophenyl)[1]benzofuro[3,2-d]pyrimidin-4(3H)-one], the IC50 in test [1] and in test [2] was less than 10 µM in each case.
`O=c1[nH]c(-c2cccs2)nc2c1oc1ccc(Br)cc12` [Compound 59, 8-bromo-2-(2-thienyl)[1]benzofuro[3,2-d]pyrimidin-4(3H)-one]: the IC50 in test [1] and in test [2] was less than 10 µM throughout.
For the molecule `Cc1cc(NC(=O)CN(C)C)ccc1-c1nc2c(oc3ccc(Br)cc32)c(=O)[nH]1` [Compound 62, N-[4-(8-bromo-4-oxo-3,4-dihydro[1]benzofuro[3,2-d]pyrimidin-2-yl)-3-methylphenyl]-N′2′,N′2′-dimethylglycinamide], the IC50 in test [1] and in test [2] was less than 10 µM throughout.
For the molecule `O=c1[nH]c(-c2ccccc2C(F)(F)F)nc2c1oc1ccc(Br)cc12` [Compound 65, 8-bromo-2-[2-(trifluoromethyl)phenyl][1]benzofuro[3,2-d]pyrimidin-4(3H)-one], the half-maximal inhibitory concentration (IC50) in test [1] and in test [2] was less than 10 µM throughout.
For the molecule `COc1cc(Br)c(-c2nc3c(oc4ccc(Br)cc43)c(=O)[nH]2)cc1OC` [Compound 66, 8-bromo-2-[2-bromo-4,5-bis(methyloxy)phenyl][1]benzofuro[3,2-d]pyrimidin-4(3H)-one], the IC50 in test [1] and in test [2] was less than 10 µM each time.
Take `COc1ccc(F)c(-c2nc3c(oc4ccc(Br)cc43)c(=O)[nH]2)c1` [Compound 67, 8-bromo-2-[2-fluoro-5-(methyloxy)phenyl][1]benzofuro[3,2-d]pyrimidin-4(3H)-one]: the IC50 in test [1] and in test [2] was less than 10 µM throughout.
As to `COc1ccc(-c2nc3c(oc4ccc(Br)cc43)c(=O)[nH]2)c(Cl)c1OC` [Compound 68, 8-bromo-2-[2-chloro-3,4-bis(methyloxy)phenyl][1]benzofuro[3,2-d]pyrimidin-4(3H)-one], the IC50 in test [1] and in test [2] was less than 10 µM throughout.
`O=c1[nH]c(-c2ccc(Cl)s2)nc2c1oc1ccc(Br)cc12` [Compound 69, 8-bromo-2-(5-chloro-2-thienyl)[1]benzofuro[3,2-d]pyrimidin-4(3H)-one]: the IC50 in test [1] and in test [2] was less than 10 µM throughout.
Consider `O=c1[nH]c(-c2c(F)cccc2F)nc2c1oc1ccc(Br)cc12` [Compound 70, 8-bromo-2-(2,6-difluorophenyl)[1]benzofuro[3,2-d]pyrimidin-4(3H)-one], for which the IC50 in test [1] and in test [2] was less than 10 µM throughout.
On to `CN1CCN(c2ccc(NCc3nc4c(oc5ccc(Br)cc54)c(=O)[nH]3)cc2)CC1` [Compound 75, 8-bromo-2-({[4-(4-methylpiperazin-1-yl)phenyl]amino}methyl)[1]benzofuro[3,2-d]pyrimidin-4(3H)-one], for which the IC50 in test [1] and in test [2] was less than 10 µM in each case.
